Patent US9273040B2 (Merck Sharp & Dohme Corp., priority 2011, dated 2016)

Tests used:
[1] = biological target: T1, human Nav1.5 channels stably expressed in HEK 293 cells (Homo sapiens, UniProt Q14524); assay: PatchXpress 7000 automated patch-clamp, sodium current; assay type: cell-based; details: selectivity over Nav1.5
T1 construct: expressed in transfected cells
From the text: (§1) To measure state and use-dependent sodium channel inhibition, test compounds were further characterized in an automated PatchXpress® assay (Molecular Devices). Two voltage-clamp protocols were used. 1) Use-dependent protocol: Cells were held at a membrane potential 20 mV negative to the potential at which ˜50% of the channels are inactivated (V0.5 inact). A train of 30 ms depolarizations to −20 mV was applied to the cells expressing Nav1.7 at a frequency of 10 Hz. […] Data was collected in the absence and presence of drug, and after drug washout. 2) A double-pulse protocol was used to measure inactivated state block. Cells were held at a potential 20 mV negative to V0.5 inact. A 8000 ms pre-pulse 7 mV positive to V0.5 inact was given followed by a hyperpolarizing 2 ms pulse to −120 mV and a 20 ms test pulse to −20 mV. Protocol was applied to cells in the absence, presence of compound and after washout. The temperature of PatchXpress instruments was maintained at 22° C. The following recording solutions were used. Internal solution (mM): 30 CsCl, 5 HEPES, 10 EGTA, 120 CsF, 5 NaF, 2MgCl2, pH=7.3 with CsOH, 324 mosmo. External solution (mM): 120 NMDG, 40 NaCl, 1 KCl, 0.5 MgCl2, 5 HEPES, 2.7 CaCl2, pH=7.5 with NMDG-OH.
(§2) For all electrophysiology experiments, offline analysis was used to correct for current rundown and to determine percent inhibition as a function of drug concentration. IC50 values were determined by fitting to the Hill equation.

[2] = biological target: T2, human Nav1.7 channels stably expressed in HEK 293 cells (Homo sapiens, UniProt Q15858); assay: as above; assay type: cell-based; details: 22° C., read-out: potency for the Nav 1.7 sodium ion channel (as measured by PatchXpress)
T2 construct: expressed in transfected cells
From the text: as §1, §2

T2 sequence (Q15858 whole entry): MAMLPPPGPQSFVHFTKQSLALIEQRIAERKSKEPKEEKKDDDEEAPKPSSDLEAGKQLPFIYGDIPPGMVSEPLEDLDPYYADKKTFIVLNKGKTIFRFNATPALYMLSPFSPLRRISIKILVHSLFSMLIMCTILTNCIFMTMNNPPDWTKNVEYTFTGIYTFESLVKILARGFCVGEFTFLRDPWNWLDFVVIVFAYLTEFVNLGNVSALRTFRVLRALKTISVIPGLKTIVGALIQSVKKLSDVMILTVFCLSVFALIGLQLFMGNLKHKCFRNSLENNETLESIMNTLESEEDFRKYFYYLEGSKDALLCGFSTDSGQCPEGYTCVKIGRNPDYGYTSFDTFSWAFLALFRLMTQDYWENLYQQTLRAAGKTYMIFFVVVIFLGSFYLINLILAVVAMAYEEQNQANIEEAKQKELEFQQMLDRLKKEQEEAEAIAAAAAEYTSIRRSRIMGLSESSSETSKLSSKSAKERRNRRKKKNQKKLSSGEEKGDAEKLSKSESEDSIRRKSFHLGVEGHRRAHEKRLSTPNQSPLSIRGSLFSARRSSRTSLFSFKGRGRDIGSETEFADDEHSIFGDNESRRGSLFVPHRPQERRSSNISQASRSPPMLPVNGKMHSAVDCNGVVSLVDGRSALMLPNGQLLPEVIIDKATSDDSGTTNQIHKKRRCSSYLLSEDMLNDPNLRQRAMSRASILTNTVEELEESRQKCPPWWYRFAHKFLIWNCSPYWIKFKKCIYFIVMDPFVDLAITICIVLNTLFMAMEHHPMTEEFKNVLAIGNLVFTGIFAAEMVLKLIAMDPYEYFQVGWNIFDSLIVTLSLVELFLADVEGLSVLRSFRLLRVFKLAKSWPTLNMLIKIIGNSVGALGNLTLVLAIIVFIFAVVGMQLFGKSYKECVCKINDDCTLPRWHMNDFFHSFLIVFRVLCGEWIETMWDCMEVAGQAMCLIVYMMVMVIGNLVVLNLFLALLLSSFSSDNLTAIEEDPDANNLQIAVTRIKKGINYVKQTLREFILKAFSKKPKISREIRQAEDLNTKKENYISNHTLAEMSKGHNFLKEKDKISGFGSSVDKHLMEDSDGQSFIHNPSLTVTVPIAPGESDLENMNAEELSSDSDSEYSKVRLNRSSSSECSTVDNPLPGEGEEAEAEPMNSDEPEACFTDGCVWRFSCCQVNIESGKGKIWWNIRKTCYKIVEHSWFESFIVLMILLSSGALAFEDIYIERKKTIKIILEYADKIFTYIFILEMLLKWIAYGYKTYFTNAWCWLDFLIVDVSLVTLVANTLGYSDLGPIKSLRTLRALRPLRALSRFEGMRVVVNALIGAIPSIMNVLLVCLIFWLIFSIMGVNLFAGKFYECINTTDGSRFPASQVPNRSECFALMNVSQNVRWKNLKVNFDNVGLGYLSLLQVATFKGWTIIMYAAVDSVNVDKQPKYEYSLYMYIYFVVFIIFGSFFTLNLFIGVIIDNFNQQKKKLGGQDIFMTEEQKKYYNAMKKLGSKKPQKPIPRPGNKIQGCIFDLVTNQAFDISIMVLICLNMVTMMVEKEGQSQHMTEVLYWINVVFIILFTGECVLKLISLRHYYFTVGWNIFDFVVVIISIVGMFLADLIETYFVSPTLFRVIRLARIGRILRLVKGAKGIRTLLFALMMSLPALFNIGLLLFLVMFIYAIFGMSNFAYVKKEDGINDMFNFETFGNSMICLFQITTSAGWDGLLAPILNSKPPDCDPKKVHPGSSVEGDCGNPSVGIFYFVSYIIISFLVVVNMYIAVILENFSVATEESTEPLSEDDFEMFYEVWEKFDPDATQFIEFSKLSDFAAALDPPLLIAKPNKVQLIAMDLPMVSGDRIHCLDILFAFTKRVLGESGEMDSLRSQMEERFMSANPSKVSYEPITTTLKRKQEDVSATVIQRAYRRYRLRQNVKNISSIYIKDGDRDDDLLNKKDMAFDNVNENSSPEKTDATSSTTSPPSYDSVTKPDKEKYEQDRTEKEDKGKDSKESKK
T1 sequence (Q14524 whole entry): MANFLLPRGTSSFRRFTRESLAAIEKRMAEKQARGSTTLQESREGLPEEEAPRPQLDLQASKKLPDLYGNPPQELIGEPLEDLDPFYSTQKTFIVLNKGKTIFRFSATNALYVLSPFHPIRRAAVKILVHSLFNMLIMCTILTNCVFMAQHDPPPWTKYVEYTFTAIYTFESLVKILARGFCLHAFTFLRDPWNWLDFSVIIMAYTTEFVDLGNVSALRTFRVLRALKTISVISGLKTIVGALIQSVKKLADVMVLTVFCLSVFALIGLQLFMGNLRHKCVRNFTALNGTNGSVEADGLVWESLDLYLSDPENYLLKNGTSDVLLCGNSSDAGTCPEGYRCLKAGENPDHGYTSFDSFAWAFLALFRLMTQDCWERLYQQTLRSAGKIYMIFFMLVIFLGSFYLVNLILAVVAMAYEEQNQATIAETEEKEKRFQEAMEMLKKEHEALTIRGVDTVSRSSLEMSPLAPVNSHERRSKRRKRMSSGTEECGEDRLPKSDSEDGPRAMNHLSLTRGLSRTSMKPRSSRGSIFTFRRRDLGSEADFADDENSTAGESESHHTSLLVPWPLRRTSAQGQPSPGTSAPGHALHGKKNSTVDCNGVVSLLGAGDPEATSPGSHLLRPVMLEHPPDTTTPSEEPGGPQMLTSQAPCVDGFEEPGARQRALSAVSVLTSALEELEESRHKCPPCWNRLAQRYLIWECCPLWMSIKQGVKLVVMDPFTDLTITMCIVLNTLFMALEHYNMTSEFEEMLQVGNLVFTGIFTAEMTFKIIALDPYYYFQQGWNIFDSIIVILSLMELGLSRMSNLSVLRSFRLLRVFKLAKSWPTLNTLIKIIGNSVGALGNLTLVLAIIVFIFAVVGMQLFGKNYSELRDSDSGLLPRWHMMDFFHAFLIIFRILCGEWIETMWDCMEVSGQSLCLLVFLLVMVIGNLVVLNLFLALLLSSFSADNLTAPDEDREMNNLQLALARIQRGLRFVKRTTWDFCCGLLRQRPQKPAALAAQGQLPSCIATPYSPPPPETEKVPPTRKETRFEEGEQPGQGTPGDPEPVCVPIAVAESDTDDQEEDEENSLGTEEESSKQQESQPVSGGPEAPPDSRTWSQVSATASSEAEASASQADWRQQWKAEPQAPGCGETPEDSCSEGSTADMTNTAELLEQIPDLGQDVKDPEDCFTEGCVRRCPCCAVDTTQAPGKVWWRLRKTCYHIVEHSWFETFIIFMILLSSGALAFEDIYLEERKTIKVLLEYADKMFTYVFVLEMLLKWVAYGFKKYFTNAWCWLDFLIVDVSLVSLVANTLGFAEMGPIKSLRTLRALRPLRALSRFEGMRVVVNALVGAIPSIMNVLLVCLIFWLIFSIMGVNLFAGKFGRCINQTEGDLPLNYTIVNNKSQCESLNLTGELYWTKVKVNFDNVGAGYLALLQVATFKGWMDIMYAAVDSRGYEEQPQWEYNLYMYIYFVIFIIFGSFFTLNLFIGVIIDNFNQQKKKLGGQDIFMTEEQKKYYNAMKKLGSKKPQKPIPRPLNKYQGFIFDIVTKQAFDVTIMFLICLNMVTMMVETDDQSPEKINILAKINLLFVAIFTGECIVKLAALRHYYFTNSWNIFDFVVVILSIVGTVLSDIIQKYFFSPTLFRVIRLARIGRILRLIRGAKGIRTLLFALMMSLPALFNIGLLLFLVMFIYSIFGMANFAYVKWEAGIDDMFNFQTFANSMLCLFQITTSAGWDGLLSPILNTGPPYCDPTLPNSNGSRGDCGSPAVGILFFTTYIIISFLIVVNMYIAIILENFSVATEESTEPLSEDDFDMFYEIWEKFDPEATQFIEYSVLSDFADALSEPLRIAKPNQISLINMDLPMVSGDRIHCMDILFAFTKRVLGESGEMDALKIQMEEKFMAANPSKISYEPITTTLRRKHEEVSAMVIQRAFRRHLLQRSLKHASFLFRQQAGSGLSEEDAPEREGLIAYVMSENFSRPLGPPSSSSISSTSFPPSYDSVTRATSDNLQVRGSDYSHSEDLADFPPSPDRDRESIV

| Compound | ratio of Nav 1.5:Nav 1.7 potency, determined by PatchXpress measurement [1] | IC50 [2] |
| --- | --- | --- |
| CC(c1cccc(-c2ccnn2C)c1)n1c(=O)oc2cc(S(=O)(=O)Nc3ncns3)c(F)cc21 (stereo not drawn) [Compound 13-10, 5-fluoro-3-{1-[3-(1-methyl-1H-pyrazol-5-yl)phenyl]ethyl}-2-oxo-N-1,2,4-thiadiazol-5-yl-2,3-dihydro-1,3-benzoxazole-6-sulfonamide] | 256 | 63 nM |
| C[C@H](c1ccccc1C1=CCCNC1)n1c(=O)oc2cc(S(=O)(=O)Nc3ncns3)c(F)cc21 [Compound 16-5, 5-fluoro-2-oxo-3-{(1R)-1-[2-(1,2,5,6-tetrahydropyridin-3-yl)phenyl]ethyl}-N-1,2,4-thiadiazol-5-yl-2,3-dihydro-1,3-benzoxazole-6-sulfonamide] | 646 | 46 nM |
| Cl.O=c1oc2cc(S(=O)(=O)Nc3ncns3)c(F)cc2n1Cc1cccc2c1CC(N1CC(F)(F)C1)CC2 (stereo not drawn) [Compound 19-6, 3-((7-(3,3-difluoroazetidin-1-yl)-5,6,7,8-tetrahydronaphthalen-1-yl)methyl)-5-fluoro-2-oxo-N-(1,2,4-thiadiazol-5-yl)-2,3-dihydrobenzo[d]oxazole-6-sulfonamide hydrochloride] | 103 | 118 nM |
| C[C@H](c1ccccc1C#CC1(N)CCCCC1)n1c(=O)oc2cc(S(=O)(=O)Nc3ncns3)c(F)cc21 [Compound 17-23, 3-[(1R)-1-{2-[(1-aminocyclohexyl)ethynyl]phenyl}ethyl]-5-fluoro-2-oxo-N-1,2,4-thiadiazol-5-yl-2,3-dihydro-1,3-benzoxazole-6-sulfonamide] | 2477 | 12 nM |
| C[C@H](c1ccccc1C1=CCN(S(C)(=O)=O)CC1)n1c(=O)oc2cc(S(=O)(=O)Nc3ncns3)c(Cl)cc21 [Compound 36-1, (R)-5-chloro-3-(1-(2-(1-(methylsulfonyl)-1,2,3,6-tetrahydropyridin-4-yl)phenyl)ethyl)-2-oxo-N-(1,2,4-thiadiazol-5-yl)-2,3-dihydrobenzo[d]oxazole-6-sulfonamide] | 54 | 527 nM |
| CC(c1cccc2c1CC(N1CC(F)(F)C1)CC2)n1c(=O)oc2cc(S(=O)(=O)Nc3ncns3)c(F)cc21 (racemic) [Compound 23-12, (+/−)-3-{1-[7-(3,3-difluoroazetidin-1-yl)-5,6,7,8-tetrahydronaphthalen-1-yl]ethyl}-5-fluoro-2-oxo-N-1,2,4-thiadiazol-5-yl-2,3-dihydro-1,3-benzoxazole-6-sulfonamide] | 46 | 109 nM |
| NC1CCc2cccc(Cn3c(=O)oc4cc(S(=O)(=O)Nc5ncns5)c(F)cc43)c2C1 (racemic) [Compound 20-4, 3-((7-amino-5,6,7,8-tetrahydronaphthalen-1-yl)methyl)-5-fluoro-2-oxo-N-(1,2,4-thiadiazol-5-yl)-2,3-dihydrobenzo[d]oxazole-6-sulfonamide] | 167 | 179 nM |
| O=c1oc2cc(S(=O)(=O)Nc3ncns3)c(F)cc2n1Cc1cccc2c1CC(N1CCC1)CC2 (racemic) [Compound 23-19, (+/−)-3-[(7-azetidin-1-yl-5,6,7,8-tetrahydronaphthalen-1-yl)methyl]-5-fluoro-2-oxo-N-1,2,4-thiadiazol-5-yl-2,3-dihydro-1,3-benzoxazole-6-sulfonamide] | 499 | 32 nM |
| C[C@H](c1ccccc1C1CNC1)n1c(=O)oc2cc(S(=O)(=O)Nc3ncns3)c(F)cc21 [Compound 31-1, (R)-3-(1-(2-(azetidin-3-yl)phenyl)ethyl)-5-fluoro-2-oxo-N-(1,2,4-thiadiazol-5-yl)-2,3-dihydrobenzo[d]oxazole-6-sulfonamide] | 603 | 15 nM |
| C[C@H](c1ccccc1C1(O)CNC1)n1c(=O)oc2cc(S(=O)(=O)Nc3nccs3)c(F)cc21 [Compound 43-22, 5-fluoro-3-{(1R)-1-[2-(3-hydroxyazetidin-3-yl)phenyl]ethyl}-2-oxo-N-1,3-thiazol-2-yl-2,3-dihydro-1,3-benzoxazole-6-sulfonamide] | 703 | 61 nM |
| O=c1oc2cc(S(=O)(=O)Nc3ncns3)c(F)cc2n1C1CCOc2ccc(F)cc21 (stereo not drawn) [Compound 39-13, 5-fluoro-3-(6-fluoro-3,4-dihydro-2H-chromen-4-yl)-2-oxo-N-1,2,4-thiadiazol-5-yl-2,3-dihydro-1,3-benzoxazole-6-sulfonamide] | 295 | 112 nM |
| C[C@H](c1ccccc1C#CCN1CCS(=O)(=O)CC1)n1c(=O)oc2cc(S(=O)(=O)Nc3ncns3)c(F)cc21 [Compound 17-5, 3-[(1R)-1-{2-[3-(1,1-dioxidothiomorpholin-4-yl)prop-1-yn-1-yl]phenyl}ethyl)-5-fluoro-2-oxo-N-1,2,4-thiadiazol-5-yl-2,3-dihydro-1,3-benzoxazole-6-sulfonamide] | 246 | 122 nM |
| Nc1cc2c(Cn3c(=O)oc4cc(S(=O)(=O)Nc5ncns5)c(F)cc43)cccc2cn1 [Compound 26-5, 3-((3-Aminoisoquinolin-5-yl)methyl)-5-fluoro-2-oxo-N-(1,2,4-thiadiazol-5-yl)-2,3-dihydrobenzo[d]oxazole-6-sulfonamide] | 450 | 67 nM |
| CCC(O)(C#Cc1ccccc1[C@@H](C)n1c(=O)oc2cc(S(=O)(=O)Nc3ncns3)c(F)cc21)CC [Compound 17-6, 3-{(1R)-1-[2-(3-ethyl-3-hydroxypent-1-yn-1-yl)phenyl]ethyl}-5-fluoro-2-oxo-N-1,2,4-thiadiazol-5-yl-2,3-dihydro-1,3-benzoxazole-6-sulfonamide] | 91 | 104 nM |
| O=c1oc2cc(S(=O)(=O)Nc3nccs3)c(F)cc2n1C1CC2(CCC2)Oc2ccc(F)cc21 (stereo not drawn) [Compound 43-11, 5-fluoro-3-(6-fluoro-3,4-dihydrospiro[chromene-2,1′-cyclobutan]-4-yl)-2-oxo-N-1,3-thiazol-2-yl-2,3-dihydro-1,3-benzoxazole-6-sulfonamide] | 196 | 41 nM |
| C[C@H](c1ccccc1C#CCN)n1c(=O)oc2cc(S(=O)(=O)Nc3ncns3)c(Br)cc21 [Compound 35-6, 3-{(1R)-1-[2-(3-aminoprop-1-yn-1-yl)phenyl]ethyl}-5-bromo-2-oxo-N-1,2,4-thiadiazol-5-yl-2,3-dihydro-1,3-benzoxazole-6-sulfonamide] | 334 | 27 nM |
| O=c1oc2cc(S(=O)(=O)Nc3ncns3)c(F)cc2n1[C@H]1CC2(CCC2)Oc2ccccc21 [Compound 39-16, 3-[(4S)-3,4-dihydrospiro[chromene-2,1′-cyclobutan]-4-yl]-5-fluoro-2-oxo-N-1,2,4-thiadiazol-5-yl-2,3-dihydro-1,3-benzoxazole-6-sulfonamide] | 149 | 53 nM |
| C[C@H](c1ccccc1C1=CCNCCC1)n1c(=O)oc2cc(S(=O)(=O)Nc3ncns3)c(F)cc21 [Compound 16-6, 5-fluoro-2-oxo-3-{(1R)-1-[2-(2,5,6,7-tetrahydro-1H-azepin-4-yl)phenyl]ethyl}-N-1,2,4-thiadiazol-5-yl-2,3-dihydro-1,3-benzoxazole-6-sulfonamide] | 1692 | 18 nM |
| C[C@H](c1cccc2c1CNCC2)n1c(=O)oc2cc(S(=O)(=O)Nc3ncns3)c(Br)cc21 [Compound 35-5, (R)-5-bromo-2-oxo-3-(1-(1,2,3,4-tetrahydroisoquinolin-8-yl)ethyl)-N-(1,2,4-thiadiazol-5-yl)-2,3-dihydrobenzo[d]oxazole-6-sulfonamide] | 932 | 16 nM |
| COC(=O)NC1CCc2cccc(Cn3c(=O)oc4cc(S(=O)(=O)Nc5ncns5)c(F)cc43)c2C1 (single isomer, unassigned) [Compound 23-1, methyl (8-((6-(N-(1,2,4-thiadiazol-5-yl)sulfamoyl)-5-fluoro-2-oxobenzo[d]oxazol-3(2H)-yl)methyl)-1,2,3,4-tetrahydronaphthalen-2-yl)carbamate] | 71 | 122 nM |
| C[C@H](c1ccccc1C1=CCN(S(C)(=O)=O)CC1)n1c(=O)oc2cc(S(=O)(=O)Nc3ncns3)c(F)cc21 [Compound 36-3, 5-fluoro-3-[(1R)-1-{2-[1-(methylsulfonyl)-1,2,3,6-tetrahydropyridin-4-yl]phenyl}ethyl]-2-oxo-N-1,2,4-thiadiazol-5-yl-2,3-dihydro-1,3-benzoxazole-6-sulfonamide] | 88 | 255 nM |
